Measurements as given in paper PMC2099433, “The binding site for neohesperidin dihydrochalcone at the human sweet taste receptor” (BMC Structural Biology, 2007).
Substitutions are numbered along the chain they refer to. Where a SMILES comes first, the peptide text is derived from it.

Columns and labels:
[1] = biological target: T1, hTAS1R2 + hTAS1R3 R790Q^ex3 (Homo sapiens, UniProt Q7RTX0+Q8TE23, R790Q); assay: Calcium response (FLIPR), hTAS1R3 mutant coexpressed with hTAS1R2; format: cell-based; conditions: variant R790Q^ex3; for Emax: read-out: maximal signal (% of wt)
T1 construct: expressed in transfected cells; host or cells: HEK293T cells stably expressing G16Gust44
T1 sequence (Q8TE23 20-839): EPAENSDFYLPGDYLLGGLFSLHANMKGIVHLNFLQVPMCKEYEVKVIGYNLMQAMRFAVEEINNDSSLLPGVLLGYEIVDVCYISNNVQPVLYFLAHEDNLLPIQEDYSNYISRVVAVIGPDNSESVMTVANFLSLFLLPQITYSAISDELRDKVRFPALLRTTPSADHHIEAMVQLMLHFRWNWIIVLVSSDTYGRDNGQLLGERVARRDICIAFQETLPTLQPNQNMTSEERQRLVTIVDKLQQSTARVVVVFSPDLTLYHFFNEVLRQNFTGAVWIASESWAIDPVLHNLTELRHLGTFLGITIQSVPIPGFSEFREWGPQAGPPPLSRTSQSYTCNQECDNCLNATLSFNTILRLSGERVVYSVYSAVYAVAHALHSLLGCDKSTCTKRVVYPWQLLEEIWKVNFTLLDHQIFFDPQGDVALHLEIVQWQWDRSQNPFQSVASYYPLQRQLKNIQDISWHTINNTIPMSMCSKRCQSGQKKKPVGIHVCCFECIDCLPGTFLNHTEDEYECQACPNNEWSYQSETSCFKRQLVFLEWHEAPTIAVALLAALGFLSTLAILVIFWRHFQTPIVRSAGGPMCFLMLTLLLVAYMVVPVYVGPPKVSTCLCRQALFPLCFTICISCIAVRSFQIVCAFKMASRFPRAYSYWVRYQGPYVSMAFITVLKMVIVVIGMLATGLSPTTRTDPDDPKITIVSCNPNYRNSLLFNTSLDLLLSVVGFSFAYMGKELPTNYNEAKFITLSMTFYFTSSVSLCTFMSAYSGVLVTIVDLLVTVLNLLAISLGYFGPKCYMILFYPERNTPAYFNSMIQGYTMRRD
T1 sequence (Q7RTX0 21-852 R790Q): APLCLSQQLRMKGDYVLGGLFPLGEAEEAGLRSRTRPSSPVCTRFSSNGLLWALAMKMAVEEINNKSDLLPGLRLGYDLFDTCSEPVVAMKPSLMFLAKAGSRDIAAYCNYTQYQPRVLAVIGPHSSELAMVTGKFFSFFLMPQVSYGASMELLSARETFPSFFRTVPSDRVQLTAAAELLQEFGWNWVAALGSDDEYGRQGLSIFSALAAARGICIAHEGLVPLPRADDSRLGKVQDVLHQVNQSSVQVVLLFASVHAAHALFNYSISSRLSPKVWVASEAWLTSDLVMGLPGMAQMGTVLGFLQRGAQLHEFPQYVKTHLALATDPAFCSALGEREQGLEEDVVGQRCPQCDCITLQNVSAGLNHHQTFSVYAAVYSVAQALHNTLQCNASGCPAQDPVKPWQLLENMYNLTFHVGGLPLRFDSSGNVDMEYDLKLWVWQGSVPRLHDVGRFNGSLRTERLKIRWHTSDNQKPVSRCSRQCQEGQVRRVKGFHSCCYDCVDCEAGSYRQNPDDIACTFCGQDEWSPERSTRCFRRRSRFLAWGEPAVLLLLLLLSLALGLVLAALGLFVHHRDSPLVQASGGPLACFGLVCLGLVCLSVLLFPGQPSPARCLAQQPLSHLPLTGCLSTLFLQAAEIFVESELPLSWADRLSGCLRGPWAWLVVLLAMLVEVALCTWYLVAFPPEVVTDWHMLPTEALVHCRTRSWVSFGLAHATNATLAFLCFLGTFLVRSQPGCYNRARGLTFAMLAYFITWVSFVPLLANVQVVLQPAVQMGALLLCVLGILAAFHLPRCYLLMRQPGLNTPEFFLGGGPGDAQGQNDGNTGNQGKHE
Procedure, shortened: (§1)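 HEK293T/G16Gust44, transient transfection of HSV-tagged TAS1R2 + TAS1R3 mutants; Fluo4-AM loading 1 h at 24 h; sweet tastants in C1 solution; FLIPR Ca2+ read; ΔF/F, mock-subtracted; ≥3 independent expts in duplicate.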

[2] = biological target: T2, hTAS1R2 + hTAS1R3 F730L^5.43 (Homo sapiens, UniProt Q7RTX0+Q8TE23, F730L); assay: as above; format: cell-based; conditions: variant F730L^5.43; for Emax: read-out: maximal signal (% of wt)
T2 construct: expressed in transfected cells; host or cells: HEK293T cells stably expressing G16Gust44
T2 sequence (Q8TE23 20-839): T1 sequence (Q8TE23 20-839)
T2 sequence (Q7RTX0 21-852 F730L): T1 sequence (Q7RTX0 21-852 R790Q) with F710L, Q770R
Procedure, shortened: as §1

EC50 [1] [µM]	Emax [1] [%]	EC50 [2] [µM]	Emax [2] [%]	SMILES
100 ± 60	77 ± 15	900 ± 100	70 ± 18	COc1ccc(CCC(=O)c2c(O)cc(O[C@@H]3O[C@H](CO)[C@@H](O)[C@H](O)[C@H]3O[C@@H]3O[C@@H](C)[C@H](O)[C@@H](O)[C@H]3O)cc2O)cc1O [NHDC, neohesperidin dihydrochalcone]
900 ± 400	71 ± 30	1700 ± 400	87 ± 27	COC(=O)[C@H](Cc1ccccc1)NC(=O)[C@@H](N)CC(=O)O [aspartame] (HELM PEPTIDE1{D.F.[CO[*:1]]}$$$$V2.0)
